# According to paper PMC3872227 (Chemistry & biology, 2013):
# Target: α1(A322D)β2γ2 GABAA receptor (α1 subunit) (Homo sapiens, UniProt P14867+P47870, P14867:A322D)
# Assay: whole-cell patch-clamp peak current at […] GABA, after SAHA treatment
# Assay type: cell-based
# Chain of α1(A322D)β2γ2 GABAA receptor (α1 subunit) (P14867 28-456 A322D): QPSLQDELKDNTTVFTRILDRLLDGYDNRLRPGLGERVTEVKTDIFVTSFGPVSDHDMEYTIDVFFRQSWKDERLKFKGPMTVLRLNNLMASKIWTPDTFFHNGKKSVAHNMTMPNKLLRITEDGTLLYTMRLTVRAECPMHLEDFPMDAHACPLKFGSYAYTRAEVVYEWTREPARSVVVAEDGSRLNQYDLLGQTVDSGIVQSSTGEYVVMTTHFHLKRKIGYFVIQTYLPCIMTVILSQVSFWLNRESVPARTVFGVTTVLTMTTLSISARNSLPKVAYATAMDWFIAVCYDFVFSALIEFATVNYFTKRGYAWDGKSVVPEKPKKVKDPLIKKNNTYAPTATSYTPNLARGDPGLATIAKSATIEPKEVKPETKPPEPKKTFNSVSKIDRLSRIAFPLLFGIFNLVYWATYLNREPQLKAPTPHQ
# Chain of α1(A322D)β2γ2 GABAA receptor (α1 subunit) (P47870 26-512): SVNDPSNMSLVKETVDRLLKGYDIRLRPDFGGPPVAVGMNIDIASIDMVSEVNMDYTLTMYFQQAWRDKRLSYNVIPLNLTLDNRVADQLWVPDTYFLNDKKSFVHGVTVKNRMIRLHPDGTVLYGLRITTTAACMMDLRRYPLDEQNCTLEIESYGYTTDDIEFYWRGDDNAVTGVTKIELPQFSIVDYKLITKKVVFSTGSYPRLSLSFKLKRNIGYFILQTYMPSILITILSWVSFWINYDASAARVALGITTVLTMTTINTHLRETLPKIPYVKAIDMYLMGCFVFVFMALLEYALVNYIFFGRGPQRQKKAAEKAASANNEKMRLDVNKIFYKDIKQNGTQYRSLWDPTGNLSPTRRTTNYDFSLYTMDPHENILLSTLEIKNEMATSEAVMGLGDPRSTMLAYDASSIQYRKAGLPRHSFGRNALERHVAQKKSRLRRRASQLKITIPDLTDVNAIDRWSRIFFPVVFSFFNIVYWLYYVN
# Chain of α1(A322D)β2γ2 GABAA receptor (α1 subunit) (P18507 40-475 partner): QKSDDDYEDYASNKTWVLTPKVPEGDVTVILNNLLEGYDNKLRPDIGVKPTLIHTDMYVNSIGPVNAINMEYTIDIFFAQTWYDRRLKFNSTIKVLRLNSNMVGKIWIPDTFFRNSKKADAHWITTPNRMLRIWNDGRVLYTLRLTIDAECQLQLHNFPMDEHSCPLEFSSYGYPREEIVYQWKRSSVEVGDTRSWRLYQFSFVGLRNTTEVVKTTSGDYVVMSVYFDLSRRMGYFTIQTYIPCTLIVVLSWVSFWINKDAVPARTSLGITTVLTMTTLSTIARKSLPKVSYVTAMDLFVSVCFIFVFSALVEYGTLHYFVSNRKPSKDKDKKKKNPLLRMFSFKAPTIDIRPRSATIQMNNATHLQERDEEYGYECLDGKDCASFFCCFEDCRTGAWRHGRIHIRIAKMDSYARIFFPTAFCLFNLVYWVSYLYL
structure (smiles),measurement,value
NCCCC(=O)O [GABA],"whole-cell patch-clamp peak current at 3 mM GABA, after SAHA treatment",14 ± 3 pA
